Common to all, as to type: in vivo
Data set [1] relates to mice. In words: Pre-pulse inhibition of acoustic startle. The text has this: Mice were individually tested in acoustic startle boxes (SR-LAB, San Diego Instruments). Following drug administration, mice were placed in the startle chamber for a 30-min habituation period. The experiment started with a further 5-min adaptation period during which the mice were exposed to a constant background noise (67 dB), followed by five initial startle stimuli (120 dB, 40 msec duration each). Subsequently, animals were exposed to five different trial types: pulse alone trials (120 dB, 40 msec duration), three pre-pulse trials of 76, 81 and 86 dB of white noise bursts (20 msec duration) preceding a 120 dB pulse by 100 msec, and background (67 dB) no-stimuli trials. Each of these trials was randomly presented five times. Ketamine's dose selection (30 mg/kg) was based on a dose-response study we performed in a previous study. The percentage pre-pulse inhibition (% PPI) was calculated using the following formula: [(magnitude on pulse alone trial—magnitude on pre-pulse+pulse trial)/magnitude on pulse alone trial]×100.

For data set [2], the system named is male CD-1 mice. Nature of the data set: Novelty-suppressed feeding (NSF). The note with it: i.p. An excerpt:
(§1) Male CD-1 mice (8-10 weeks old, Charles River Laboratories, Mass., USA) were housed in groups of four-five per cage with a constant 12-hour light/dark cycle (lights on/off at 07:00/19:00). Food and water were available ad libitum. Mice acclimatized to the new environment for seven days prior to the start of the experiments. For the whole-cell NMDA current electrophysiological recordings, male Sprague-Dawley rats (housed three per cage; Charles River, Wilmington, Mass.) were used. EPSC recording were done from rats at postnatal day 24-25. All experimental procedures were approved by the University of Maryland, Baltimore Animal Care and Use Committee and were conducted in full accordance with the National Institutes of Health Guide for the Care and Use of Laboratory Animals.
Mice were singly housed and food-deprived for twenty-four hours in freshly-made home-cages. Two normal chow diet pellets were placed on a square food platform (10×10 cm) in the center of an open-field arena (40×40 cm). […] The time needed for the mice to take a bite of food was recorded over a 10 min period by a trained observer blind to the treatment groups. After the test, the mice were returned to their home cage containing pre-weighed food pellets, and latency to bite the food as well as consumption was recorded for a period of 10 min.

Data set [3] concerns mice. In words: Accelerating rotarod (motor coordination). Particulars: 5-60 min post-injection, i.p. The protocol:
The rotarod test was conducted to compare the effects of ketamine, (2S,6S)-HNK and (2R,6R)-HNK on motor coordination. The experiment consisted of two phases: training phase (4 days) and a test phase (1 day). On each of the training days five trials (trial time: 3 min) were conducted with an inter-trial interval of two min Mice were individually placed on the rotarod apparatus (HTC Life Science; Woodland Hills, Calif., USA) and the rotor (3.75 inch diameter) accelerated from 5-20 RPM over a period of three minutes. Latency to fall was recorded for each trial. Animals with an average of <100 sec of latency to fall during the last training day were excluded from the experiment. On the test day (day 5), mice received (i.p.) injections of saline, (R,S)-KET (10 mg/kg), (2S,6S)-HNK (25 or 125 mg/kg) or (2R,6R)-HNK (2.5 or 125 mg/kg) and were tested in the rotating rod 5-. 10-, 15-, 20-, 30- and 60-min post-injection using the same procedure described for the training days.
Background: In the rotarod test animals must keep their balance on a rotating rod.

Data set [4] deals with mice. Nature of the data set: Chronic corticosterone-induced anhedonia, sucrose preference test. The note with it: single administration, measured after 24 hours. The method, then: For assessing the baseline sucrose preference, mice were singly housed for 24 hours and presented with two identical bottles containing either tap water or 1% sucrose solution. Following baseline sucrose measurement, mice were re-grouped housed (5 mice per cage) and treated for 4 weeks with corticosterone (25 μg/ml equivalent) given in water bottles. Prior to initiation of any behavioral measurements, animals were weaned off corticosterone treatment; 3 days corticosterone 12.5 μg/ml and 3 days corticosterone 6.25 μg/ml, followed by 1 week of complete withdrawal from the drug. Mice were subsequently singly-housed in freshly-made home cages and provided with two bottles containing either tap water or 1% sucrose solution. Twenty-four hours later, mice that developed anhedonia phenotype (<55% sucrose preference) were treated with saline or (2R,6R)-HNK (10 mg/kg) and sucrose preference measured after an additional 24 hours.

Data set [5] has as its system mice. Nature of the data set: Chronic corticosterone-induced anhedonia, female urine sniffing test. The note with it: single administration, mice with anhedonic phenotype, re-test 24 hours later. The protocol:
A separate cohort of mice were treated with the same chronic corticosterone administration paradigm as described above, and 24 hours later assessed for female urine sniffing preference as a measure of hedonic behavior. Mice were singly-housed in freshly-made home cages for a habituation period of 10 min. Subsequently, one plain cotton tip was secured on the center of the cage wall and mice were allowed to sniff and habituate to the tip for a period of 30 min. Then, the plain cotton tip was removed and replaced by two cotton tip applicators one infused with fresh female mouse estrus urine and the other with fresh male mouse urine. These applicators were presented at the same time and secured at the two corners of the cage wall. Sniffing time for both the female and male urine was scored by a trained observer for a period of three minutes.

For data set [6], the system named is male CD-1 mice. Nature of the data set: Learned helplessness (LH). Particulars: single injection.
Text: as §1
The LH paradigm consisted of three different phases, i.e., inescapable shock training, LH screening, and the LH test. For the inescapable shock portion of the test (Day 1), the animals were placed in one side of two-chambered shuttle boxes (34 cm height×37 cm width×18 cm depth; Coulbourn Instruments, PA, USA), with the door between the chambers closed. Following a five-min adaptation period, 120 inescapable foot-shocks (0.45 mA, 15 sec duration, randomized average inter-shock interval of 45 sec) were delivered through the grid floor. During the screening session (Day 2), the mice were placed in one of the two chambers of the apparatus for 5 min. A shock (0.45 mA) was then delivered, and the door between the two chambers was raised simultaneously. Crossing over into the second chamber terminated the shock. […] A total of 30 screening trials of escapable shocks were presented to each mouse with an average of 30 sec delay between each trial. Mice that developed helplessness behavior (>5 escape failures during the last 10 screening shocks) were administered with the respective drug 24 hours following screening (Day 3). During the LH test phase (Day 4), the animals were placed in the shuttle boxes and, after a 5-min adaptation period, a 0.45 mA shock was delivered concomitantly with door opening for the first five trials, followed by a 2-sec delay for the next 40 trials. Crossing over to the second chamber terminated the shock. […] A total of 45 trials of escapable shock were presented to each mouse with 30 sec inter-trial intervals. The number of escape failures was recorded for each mouse.

“Also recorded” adds a separate entry of the source.

`CNC1(c2ccccc2Cl)CCCCC1=O` (racemic) [ketamine, (R,S)-ketamine, reference compound]: the “startle amplitude in the pre-pulse inhibition task” value with mice [1] (mouse, in vivo) was “not affected”.

For the compound `N[C@@]1(c2ccccc2Cl)CCC[C@@H](O)C1=O` [(2R,6R)-HNK, (2R,6R)-2-amino-2-(2-chlorophenyl)-6-hydroxycyclohexanone], the “antidepressant-like effect in novelty-suppressed feeding (latency to feed)” value in the data set with male CD-1 mice [2] is given as “dose-dependent antidepressant-like effects; also recorded: dose-dependent antidepressant action”. The “motor coordination in the rotarod” value with mice [3] is listed as “did not affect coordination”. Moreover, in the data set on mice [4], the “reversal of chronic corticosterone-induced decrease in sucrose preference” value is recorded as “reversed chronic corticosterone-induced decreases in sucrose preference; also recorded: reversed chronic corticosterone-induced anhedonia”. The “pre-pulse inhibition (sensorimotor gating)” value with mice [1] ((2R,6R)-HNK up to 375 mg/kg) was “did not induce 4e, pre-pulse inhibition deficits; also recorded: did not affect sensorimotor gating; also recorded: did not affect pre-pulse inhibition”. Also, the “reversal of chronic corticosterone-induced decrease in female urine sniffing preference” value in the data set with mice [5] is “reversed chronic corticosterone-induced decrease in female urine sniffing preference; also recorded: reversed chronic corticosterone-induced anhedonia”. The “doses with antidepressant-like effects in learned helplessness” value in the data set with male CD-1 mice [6] is 5 to 75 mg/kg. Also, in the data set on male CD-1 mice [6] (test 24 hours after administration), the “antidepressant-like effect in learned helplessness (escape failures)” value was “greater potency and longer-lasting antidepressant-like effects; also recorded: dose-dependent antidepressant-like responses; also recorded: more potent antidepressant effects; also recorded: dose-dependent antidepressant action”.

The values above are taken from patent US20190083420A1, “METHODS OF USING (2R, 6R)-HYDROXYN[…] (2S, 6S)-HYDROXYN[…] THE TREATMENT OF DEPRESSION, ANXIETY, ANHEDONIA, FATIGUE, SUICIDAL IDEATION, AND POST TRAUMATIC STRESS DISORDERS” (The Uinited States of America, as represented by the …, priority 2016, published 2019).
